Assay results published in patent publication US8741932B2, “Imidazopyridine derivatives” (Piramal Enterprises Limited, priority 2009, dated 2014).
pIC50: −log10 of the molar value. Like-named read-outs stand apart in the source and are kept apart here.

What was measured:
A549 = experiment: Cytotoxicity assay (propidium iodide), A549; type: cell-based; settings: A549 (C1a, lung), 48 hours
Description: (§1) Cells from cell lines as mentioned in the table given below were seeded at a density of 3000 cells/well in a white opaque 96-well plate. Following incubation at 37° C./5% CO2 for a period of 18-24 hours, the cells were treated with various concentrations (stock solution was prepared in DMSO and subsequent dilutions were made in media as per ATCC guidelines) of the representative compounds of present invention (refer table 3) for a period of 48 hours. At the end of treatment, the spent culture medium was discarded, the cells were washed with 1×PBS and 200 μl of 7 μg/ml propidium iodide was added to each well. The plates were frozen at −70° C. for at least 24 hours. For analysis, the plates were brought to RT, allowed to thaw and were read in PolarStar fluorimeter with the fluorescence setting. The percentage of viable cells in the non treated set of wells was considered to be 100 and the percentage viability following treatment was calculated accordingly. IC50 values were calculated from graphs plotted using these percentages.

H460 = experiment: Cytotoxicity assay (propidium iodide), H460; type: cell-based; settings: H460 (C1b, lung), 48 hours
Description: as §1

HT29 = experiment: Cytotoxicity assay (propidium iodide), HT29; type: cell-based; settings: HT29 (C4a, colon); 48 hours
Description: as §1

PC3 [1] = tested on: PC3
A2780 = experiment: Cytotoxicity assay (propidium iodide), A2780; type: cell-based; settings: A2780 (C3a, ovarian), 48 hours
Description: as §1

MDA MB 231 = experiment: Cytotoxicity assay (propidium iodide), MDA MB 231; type: cell-based; settings: MDA MB 231 (C6a, breast); 48 hours
Description: as §1

IL-6 = experiment: Human monocyte assay, LPS-stimulated IL-6; type: cell-based; settings: human monocytes, 1 μg/ml LPS, 5 hours
Outline: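 Adherent human PBMC-derived monocytes (2×10^4/well) were cultured 48 h, preincubated 30 min with compound or 0.5% DMSO, then stimulated with 1 μg/ml E. coli LPS for 5 h at 37° C. TNF-α and IL-6 in supernatants were measured by ELISA.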

STAT3 = STAT3 bioassay (Hela Stat3-luc, luciferase); type: cell-based; settings: Oncostatin M induction
Outline: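 Hela Stat3-luc cells (20,000/well, 24 h) pretreated with compound 1 h, then induced with 100 ng/ml final Oncostatin M for 7-8 h at 37 °C. Luciferase luminescence after lysis; percent inhibition versus induction control, IC50 from these percentages.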

mTOR = target: T1, mTOR (Homo sapiens, UniProt P42345); experiment: mTOR activity assay (cell ELISA, Phospho-AKT Ser 473, A2780 cells); type: cell-based; settings: 1 μM, read-out: % Inhibition of mTOR activity at 1 μM
T1 construct: endogenous in cells; host or cells: A2780 ovarian cell line (ATCC)
Description: Seed cells (Ovarian cell line A2780, ATCC) were plated in a 96 well microtitre plate at a density of 50,000 cells/cm^2 in appropriate complete cell culture medium. The cells were allowed to adhere for 18-24 hours. The cells were allowed to starve for 24 hours. […] Then the cells were stimulated with 20% FCS for 30 minutes. A typical assay would consist of a set of unstimulated cells, a set of stimulated cells and a set of cells treated with compounds of present invention and a set of cells treated with the stimulator. The medium was discarded. The cells were fixed with 100 μL of 3.7% formaldehyde for 15 minutes. The formaldehyde was discarded by inverting the plate and tapping it on a thick tissue paper layer to remove traces. The cells were washed and permeabilized with 200 μL PBS+Triton-X 100 solution (hereafter referred to as PBS-Triton, containing 0.1% triton-X 100 in 1×PBS) three times, incubating the cells each time for 5 minutes. 100 μL blocking solution (10% FCS in PBS-Triton) was added and incubated for 1 hour at 25° C. The blocking solution was discarded and cells were incubated with the primary antibody in PBS-Triton at a dilution of 1:500 for 1 hour at RT (25° C.). [The primary antibody is Phospho-AKT (Ser 473); Cell Signaling; Cat. No. 9271]. The primary antibody solution was discarded and the cells were washed 3 times with PBS-Triton solution and incubated with the HRP-conjugated secondary antibody in PBS-Triton at a dilution of 1:500 for 1 hour at RT (25° C.). The cells were washed 3 times with PBS-Triton followed by two washes with PBS (to remove traces of triton-X 100). The OPD (o-phenylene diamine dihydrochloride) substrate was prepared for detection of the signal by dissolving one tablet set (two tablets) of SigmaFast OPD (Sigma, Cat No. P9187) in 20 mL distilled water. It should be protected from light. 100 μL OPD solutions was added to the wells and the plate was incubated in the dark for 3-5 minutes (depending upon the development of the color). The reaction was stopped by adding 50 μL 2 N H2SO4. The absorbance was measured at 490 nm. The values were expressed in the treated samples, in terms of percentage or fold decrease in AKT phosphorylation with respect to the induced sample. PI-103 (Calbiochem, USA) was used as a standard.

PI3Kα kinase = target: T2, PI3Kα kinase (Homo sapiens, UniProt P42336); experiment: Kinase assay (PI3Kα); type: biochemical; settings: read-out: IC50 (μM) for PI3K inhibition
T2 construct: purchased Millipore, USA
Outline: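 Recombinant PI3Kα (20 ng) phosphorylated 12.5 μg phosphatidylinositol with 10 μM ATP and 1 μCi ^32γ P […] in 10 mM Hepes pH 7.5, 50 mM MgCl2 for 20 min at 30° C. Lipids were extracted with MeOH/CHCl3, resolved by TLC, and labelled PI quantified by autoradiography densitometry; PI-103 served as standard.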

HCT116 = experiment: Cytotoxicity assay (propidium iodide), HCT116; type: cell-based; settings: Homo sapiens, HCT-116; HCT116 (C4b, colon); 48 hours
U 373 = experiment: Cytotoxicity assay (propidium iodide), U 373; type: cell-based; settings: Homo sapiens, U373 MG; U 373 (C8a, glioblastoma); 48 hours
Description: as §1

PC3 [2] = experiment: Cytotoxicity assay (propidium iodide), PC3; settings: Homo sapiens, PC-3, 48 h, read-out: IC50 cytotoxicity
U 87 MG = experiment: Cytotoxicity assay (propidium iodide), U 87 MG; type: cell-based; settings: Homo sapiens; U 87 MG (C8b, glioblastoma); 48 hours
Description: as §1

T2 sequence (P42336 whole entry): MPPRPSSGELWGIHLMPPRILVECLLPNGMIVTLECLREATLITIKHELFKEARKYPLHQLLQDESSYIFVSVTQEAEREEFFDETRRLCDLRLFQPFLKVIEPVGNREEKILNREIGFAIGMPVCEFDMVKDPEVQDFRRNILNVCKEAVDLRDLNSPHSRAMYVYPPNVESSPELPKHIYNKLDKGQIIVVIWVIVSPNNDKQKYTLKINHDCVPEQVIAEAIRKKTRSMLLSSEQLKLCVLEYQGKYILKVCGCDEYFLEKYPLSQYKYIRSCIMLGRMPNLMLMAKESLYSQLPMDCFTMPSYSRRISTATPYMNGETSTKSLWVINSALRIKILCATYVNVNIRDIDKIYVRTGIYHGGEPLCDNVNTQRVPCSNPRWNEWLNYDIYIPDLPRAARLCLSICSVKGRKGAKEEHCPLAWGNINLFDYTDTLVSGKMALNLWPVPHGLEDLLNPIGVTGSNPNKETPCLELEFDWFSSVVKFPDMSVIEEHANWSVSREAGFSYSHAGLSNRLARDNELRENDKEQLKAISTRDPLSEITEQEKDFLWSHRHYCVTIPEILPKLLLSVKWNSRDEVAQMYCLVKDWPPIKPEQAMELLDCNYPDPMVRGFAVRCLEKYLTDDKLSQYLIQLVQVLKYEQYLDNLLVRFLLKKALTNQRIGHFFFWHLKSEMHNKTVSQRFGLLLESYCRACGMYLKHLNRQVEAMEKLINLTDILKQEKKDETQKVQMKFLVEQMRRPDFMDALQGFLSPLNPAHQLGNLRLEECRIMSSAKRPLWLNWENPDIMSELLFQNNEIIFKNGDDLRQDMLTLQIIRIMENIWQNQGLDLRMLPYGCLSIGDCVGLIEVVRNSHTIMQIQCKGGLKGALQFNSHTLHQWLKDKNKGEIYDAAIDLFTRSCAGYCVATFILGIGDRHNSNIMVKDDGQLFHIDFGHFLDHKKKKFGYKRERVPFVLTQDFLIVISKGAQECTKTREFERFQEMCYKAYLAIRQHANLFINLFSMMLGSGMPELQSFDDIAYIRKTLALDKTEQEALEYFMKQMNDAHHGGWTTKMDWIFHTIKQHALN
T2 sequence (P27986 whole entry partner): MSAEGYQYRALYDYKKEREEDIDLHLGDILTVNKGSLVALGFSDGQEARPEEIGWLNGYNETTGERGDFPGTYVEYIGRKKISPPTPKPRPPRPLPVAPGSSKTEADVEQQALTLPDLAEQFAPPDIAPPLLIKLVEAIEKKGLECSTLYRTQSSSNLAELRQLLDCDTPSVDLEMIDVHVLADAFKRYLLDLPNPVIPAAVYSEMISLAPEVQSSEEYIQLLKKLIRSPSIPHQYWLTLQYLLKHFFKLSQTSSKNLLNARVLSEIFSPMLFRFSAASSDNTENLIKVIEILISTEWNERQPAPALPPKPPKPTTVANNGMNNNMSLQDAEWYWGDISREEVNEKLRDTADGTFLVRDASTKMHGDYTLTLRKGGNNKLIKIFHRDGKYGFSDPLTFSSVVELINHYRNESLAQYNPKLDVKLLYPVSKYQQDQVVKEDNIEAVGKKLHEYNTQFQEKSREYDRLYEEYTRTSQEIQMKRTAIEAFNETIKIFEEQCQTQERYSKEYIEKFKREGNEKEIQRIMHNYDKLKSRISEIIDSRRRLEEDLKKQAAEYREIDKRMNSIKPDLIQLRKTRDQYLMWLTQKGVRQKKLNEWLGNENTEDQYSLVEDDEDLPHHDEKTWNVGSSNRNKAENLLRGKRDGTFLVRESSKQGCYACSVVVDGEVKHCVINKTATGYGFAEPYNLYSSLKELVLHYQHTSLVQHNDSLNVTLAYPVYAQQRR

| pIC50 (PC3 [1]) | IC50 (IL-6) [µM] | pIC50 (STAT3) | inhibition at 1 µM (mTOR) [%] | IC50 (PI3Kα kinase) [µM] | pIC50 (STAT3; Homo sapiens) | SMILES | pIC50 (A549) | pIC50 (H460) | pIC50 (HT29) | pIC50 (A2780) | pIC50 (MDA MB 231) | pIC50 (A549; Homo sapiens) | pIC50 (H460; Homo sapiens, NCI-H460) | pIC50 (HCT116) | pIC50 (A2780; Homo sapiens) | pIC50 (U 373) | pIC50 (PC3 [2]) | pIC50 (U 87 MG) |
| --- | --- | --- | --- | --- | --- | --- | --- | --- | --- | --- | --- | --- | --- | --- | --- | --- | --- | --- |
| 5.30 to 8.00 | 0.001 to 5 | 5.00 to 5.30 | – | – | – | Cc1cccc(S(=O)(=O)N(C)N=Cc2cnc3ccc(-c4cccnc4)cn23)c1 [Example 2] | 5.30 to 8.00 | 5.30 to 8.00 | < 5.30 | 5.30 to 8.00 | 5.30 to 8.00 | – | – | – | – | – | – | – |
| – | – | – | 30 to 50 | 0.01 to 0.5 | 5.30 to 7.00 | Cc1ccc(S(=O)(=O)N(C)N=Cc2cnc3ccc(-c4cccnc4)cn23)cc1F [Example 20, 3-Fluoro-N, 4-dimethyl-N′-((6-(pyridine-3-yl)imidazo[1,2-a]pyridine-3-yl)methylene) benzenesulfonohydrazide] | – | – | – | – | – | < 5.30 | < 5.30 | < 5.30 | < 5.30 | < 5.30 | < 5.30 | < 5.30 |
| – | – | – | – | – | < 5.00 | CN(N=Cc1cnc2ccc(-c3cccnc3)cn12)S(=O)(=O)c1ccc(F)c(C#N)c1 [Example 24, 3-Cyano-4-fluoro-N-methyl-N′-((6-(pyridine-3-yl)imidazo[1,2-a]pyridine-3-yl)methylene) benzenesulfonohydrazide] | – | – | – | – | – | 5.30 to 8.00 | 5.30 to 8.00 | < 5.30 | 5.30 to 8.00 | 5.30 to 8.00 | 5.30 to 8.00 | 5.30 to 8.00 |
| < 5.30 | – | – | – | – | – | Cc1ccc([N+](=O)[O-])cc1S(=O)(=O)N(C)N=Cc1cnc2ccc(-c3ccc(F)nc3)cn12 [Example 83, N′-((6-(6-fluoropyridine-3-yl)imidazo[1,2-a]pyridine-3-yl)methylene)-n, 2-dimethyl-5-nitrobenzenesulfonohydrazide] | < 5.30 | < 5.30 | < 5.30 | 5.30 to 8.00 | 5.30 to 8.00 | – | – | – | – | – | – | – |
